Assay results as given in patent US20140031368A1, “SELECTIVE HDAC INHIBITORS” (THE TRUSTEES OF COLUMBIA UNIVERSITY IN THE CITY OF NEW YORK, priority 2010, published 2014).

Legend:
HDAC6 = target: T1, HDAC6 (Homo sapiens, UniProt Q9UBN7); experiment: Fluorogenic HDAC assay kit (BPS Bioscience), HDAC6 inhibition; format: biochemical; conditions: for IC50: purified/recombinant enzyme, inhibitor range 10,000-0.1 nM; for IC50 0 ratio (1/6): ratio IC50 HDAC1 / IC50 HDAC6
T1 sequence (Q9UBN7 1-1215): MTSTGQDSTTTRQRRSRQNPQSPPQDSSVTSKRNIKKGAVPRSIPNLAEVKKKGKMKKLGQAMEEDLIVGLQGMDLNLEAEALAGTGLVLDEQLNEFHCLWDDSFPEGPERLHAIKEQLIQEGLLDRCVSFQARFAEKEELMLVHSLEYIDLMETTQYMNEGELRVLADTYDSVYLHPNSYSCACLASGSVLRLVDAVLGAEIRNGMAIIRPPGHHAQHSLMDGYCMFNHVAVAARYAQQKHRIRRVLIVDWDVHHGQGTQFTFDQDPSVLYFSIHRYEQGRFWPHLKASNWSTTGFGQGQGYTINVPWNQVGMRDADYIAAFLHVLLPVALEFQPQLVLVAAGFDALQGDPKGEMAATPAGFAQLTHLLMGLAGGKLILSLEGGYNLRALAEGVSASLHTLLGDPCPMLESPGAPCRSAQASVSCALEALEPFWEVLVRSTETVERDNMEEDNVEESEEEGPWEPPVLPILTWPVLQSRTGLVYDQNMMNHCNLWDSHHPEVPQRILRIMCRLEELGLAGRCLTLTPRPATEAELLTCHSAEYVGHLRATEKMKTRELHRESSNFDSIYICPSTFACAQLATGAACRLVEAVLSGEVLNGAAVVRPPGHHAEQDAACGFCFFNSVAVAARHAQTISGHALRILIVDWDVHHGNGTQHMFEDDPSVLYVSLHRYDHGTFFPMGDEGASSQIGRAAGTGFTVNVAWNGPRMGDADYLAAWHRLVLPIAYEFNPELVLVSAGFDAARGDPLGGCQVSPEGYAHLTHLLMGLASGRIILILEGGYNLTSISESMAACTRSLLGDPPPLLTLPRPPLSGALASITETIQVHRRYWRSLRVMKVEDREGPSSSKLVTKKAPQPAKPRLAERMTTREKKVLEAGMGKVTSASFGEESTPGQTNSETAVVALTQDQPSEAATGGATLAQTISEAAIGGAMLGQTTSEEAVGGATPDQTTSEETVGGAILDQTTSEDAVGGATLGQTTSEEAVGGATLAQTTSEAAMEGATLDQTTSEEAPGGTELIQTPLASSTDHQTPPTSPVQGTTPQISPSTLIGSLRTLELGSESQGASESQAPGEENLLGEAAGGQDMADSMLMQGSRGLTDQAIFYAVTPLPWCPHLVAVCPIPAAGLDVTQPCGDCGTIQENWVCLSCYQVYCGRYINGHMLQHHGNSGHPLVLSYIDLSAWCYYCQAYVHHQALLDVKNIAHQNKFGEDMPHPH
Method: (§1) Various compounds were tested in in vitro enzyme assays for their activity in inhibiting HDAC6 and HDAC1. The assays used was a fluorogenic HDAC assay kit (BPS Bioscience, San Diego, Calif.). On a micotiter the HDAC fluorometric substrate containing an aceylated side chain is incubated with a sample containing HDAC activity (purified/recombinant HDAC1 or HDAC6 enzyme). The deacetylation sensitizes the substrate so subsequent treatment with a lysine developer produces a fluorophore that can then be measured using a fluorescence reader. The assay is performed in the absence and presence of the potential inhibitor compound.
(§2) Follow BPS Bioscience Fluorogenic HDAC Assay Kit (see Example 2). Range of inhibitor compounds tested: 10,000-0.1 nM

HDAC1 = HDAC1 (Homo sapiens, UniProt Q13547); experiment: Fluorogenic HDAC assay kit (BPS Bioscience), HDAC1 inhibition; format: biochemical; conditions: purified/recombinant enzyme; inhibitor range 10,000-0.1 nM
Method: as §1, §2

[1] = system: HDAC genes in NPC-26 fibroblasts; experiment: qRT-PCR of HDAC gene expression in NPC-26 fibroblasts; format: cell-based, human; conditions: NPC-26 fibroblasts treated with HDAC inhibitor; FIG. 3B
NP-C fibroblasts = experiment: Esterification of LDL-derived cholesterol (cholesteryl [3H]oleate formation) in NP-C fibroblasts; format: cell-based, human; conditions: 24 h treatment with 5 μM SAHA after 4 d in LPDS; FIG. 4B
Method: Cells were grown for 4 d in LPDS, followed by a 24 h treatment with or without 5 μM SAHA, the last 4 h of which included LDL plus [^3H]oleate. *P<0.05, treated vs. untreated cells by two-tailed Student's t-test.

NP-C mutant fibroblasts = format: cell-based, human

Sequence of HDAC1 (Q13547 whole entry): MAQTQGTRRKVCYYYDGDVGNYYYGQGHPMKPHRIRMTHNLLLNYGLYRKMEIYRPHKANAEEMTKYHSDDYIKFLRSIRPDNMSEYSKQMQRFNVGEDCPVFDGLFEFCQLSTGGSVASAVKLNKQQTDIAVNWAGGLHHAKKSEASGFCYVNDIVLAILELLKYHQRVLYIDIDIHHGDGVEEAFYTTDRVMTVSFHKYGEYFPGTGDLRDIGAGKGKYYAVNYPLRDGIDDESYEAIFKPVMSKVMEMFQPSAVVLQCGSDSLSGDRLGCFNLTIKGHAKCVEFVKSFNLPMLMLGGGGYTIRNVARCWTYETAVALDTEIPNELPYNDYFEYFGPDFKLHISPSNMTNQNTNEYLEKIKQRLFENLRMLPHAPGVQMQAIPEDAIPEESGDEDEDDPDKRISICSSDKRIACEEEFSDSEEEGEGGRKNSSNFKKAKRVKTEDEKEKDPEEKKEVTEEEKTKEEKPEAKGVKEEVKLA

| Structure (SMILES) | IC50 (HDAC6) [µM] | IC50 0 ratio (1/6) (HDAC6) | IC50 (HDAC1) [µM] | HDAC gene expression (qRT-PCR) [1] | esterification of LDL-derived cholesterol (percent cholesteryl [3H]oleate formation relative to total lipids) (NP-C fibroblasts) | lysosomal accumulation of unesterified cholesterol (filipin) (NP-C mutant fibroblasts) |
| --- | --- | --- | --- | --- | --- | --- |
| O=C(CCCCCCNC(=O)c1ccc(C(F)(C(=O)Nc2cccc3cccnc23)C(=O)Nc2cccc3cccnc23)cc1)NO [Compound 65, 2-Fluoro-2-(4-(7-(hydroxyamino)-7-oxoheptylcarbamoyl)phenyl)-N1,N3-di(quinolin-8-yl)malonamide] | 0.042 | 58 | 2.45 | – | – | – |
| O=C(CCCCCCNC(=O)c1ccc(C(C(=O)Nc2cccc3cccnc23)C(=O)Nc2cccc3cccnc23)cc1)NO [Compound 61, 2-(4-(7-(hydroxyamino)-7-oxoheptylcarbamoyl)phenyl)-N1,N3-di(quinolin-8-yl)malonamide] | 0.012 | 87 | 1.04 | – | – | – |
| O=C(CCCCCCC(=O)Nc1ccccc1)NO [SAHA, suberoylanilide hydroxamic acid] | – | – | – | restores expression in the direction of control cells | Restoration of deficient esterification of LDL-derived cholesterol | Reduction in lysosomal accumulation of unesterified cholesterol |
| O=C(CCCCCCCC(=O)Nc1ccc(C(C(=O)Nc2cccc3cccnc23)C(=O)Nc2cccc3cccnc23)cc1)NO [Compound 28, N^1-(4-(1,3-dioxo-1,3-bis(quinolin-8-ylamino)propan-2-yl)phenyl)-N^9-hydroxynonanediamide] | 0.057 | 25 | 1.44 | – | – | – |
| O=C(CCCCCC(=O)Nc1ccc(C(C(=O)Nc2cccc3cccnc23)C(=O)Nc2cccc3cccnc23)cc1)NO [Compound 31, N^1-(4-(1,3-dioxo-1,3-bis(quinolin-8-ylamino)propan-2-yl)phenyl)-N^7-hydroxyheptanediamide] | 0.022 | 51 | 1.13 | – | – | – |

More lines, main results first:

| IC50 (HDAC6) [µM] | IC50 0 ratio (1/6) (HDAC6) | IC50 (HDAC1) [µM] | Structure (SMILES) | HDAC gene expression (qRT-PCR) [1] | esterification of LDL-derived cholesterol (percent cholesteryl [3H]oleate formation relative to total lipids) (NP-C fibroblasts) | lysosomal accumulation of unesterified cholesterol (filipin) (NP-C mutant fibroblasts) |
| --- | --- | --- | --- | --- | --- | --- |
| 0.0044 | 10.6 | 0.0467 | CC(C)(C)OC(=O)Nc1ccc(-c2csc(C(=O)NCCCCCCC(=O)NO)c2)cc1 [Compound 79] | – | – | – |
| – | – | 0.0384 | CC(C)(C)OC(=O)Nc1ccc(-c2cc(C(=O)NCCCCCCC(=O)NO)no2)cc1 [Kozikowski compound, reference compound] | – | – | – |
| 0.0344 | 3.1 | 0.106 | CC(C)(C)c1ccc(NC(=O)C(CCCCCC(=O)NO)C(=O)Nc2ccc(C(C)(C)C)cc2)cc1 [Compound 77] | – | – | – |
| 0.003 | 42.9 | 0.129 | O=C(CCCCCCC(=O)Nc1ccc(C(C(=O)Nc2ccccc2)C(=O)Nc2ccccc2)cc1)NO [Compound 9, N^1-(4-(1,3-Dioxo-1,3-bis(phenylamino)propan-2-yl)phenyl)-N^8-hydroxyoctanediamide] | – | – | – |
| 0.00225 | 107 | 0.242 | O=C(CCCCCCC(=O)Nc1ccc(C(C(=O)Nc2cccc3cccnc23)C(=O)Nc2cccc3cccnc23)cc1)NO [Compound 6, N^1-(4-(1,3-Dioxo-1,3-bis(quinolin-8-ylamino)propan-2-yl)phenyl)-N^8-hydroxyoctanediamide] | – | – | – |
| 0.0657 | 10.3 | 0.676 | CC(C)(C)c1ccc(CNC(=O)CCCCCCCC(=O)NO)cc1 [Compound 78] | – | – | – |
